In one assay the target is PIM-1 (Homo sapiens (Human), UniProt P11309). Put plainly: Luminometric kinase assay for PIM1 kinase (Kinase-Glo). Format: biochemical. Conditions: 1 μM ATP, 25 min at RT. The procedure: Kinase assay was performed using luminescent Kinase-Glo® (Promega) system. The Kinase-Glo® Luminescent Kinase Assay Platform provides a homogeneous, high-throughput screening method for measuring kinase activity by quantifying the amount of ATP remaining in solution following a kinase reaction. The luminescent signal is correlated with the amount of ATP present and is inversely correlated with the kinase activity. Appropriate amounts of both kinase and substrate were mixed in 96-well, white wall plate in the reaction buffer (8 mM MOPS/NaOH, pH7.0, 0.2 mM EDTA, 2 mM MgCl2). Tested compounds were diluted in DMSO and serial dilutions starting with 1 μM were added to the palates. Reaction was initiated by adding 1 μM of ATP solution and conducted for 25 min. at RT. Luminescent signal was detected by adding Kinase-Glo® reagent and measured using a microplate spectrophotometer (Synergy 2 multi-mode microplate reader (BioTek)). IC50 values were obtained by fitting sigmoidal dose-response curve (variable slope) using GraphPad Prism software.
Chain of PIM-1 (P11309 whole entry): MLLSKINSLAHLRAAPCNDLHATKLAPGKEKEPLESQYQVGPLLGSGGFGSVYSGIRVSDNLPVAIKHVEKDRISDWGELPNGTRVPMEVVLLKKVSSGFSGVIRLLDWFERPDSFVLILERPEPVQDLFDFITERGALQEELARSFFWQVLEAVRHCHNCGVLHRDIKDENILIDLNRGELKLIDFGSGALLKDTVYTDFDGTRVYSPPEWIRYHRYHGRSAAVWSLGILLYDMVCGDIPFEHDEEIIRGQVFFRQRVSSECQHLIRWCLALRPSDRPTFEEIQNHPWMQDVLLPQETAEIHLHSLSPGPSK

Assay [1] deals with human hepatoma HepG2 cells. The assay is described as follows: Growth inhibition test (MTS) on HepG2 cells. The assay is classed as cell-based. Conditions: 72 hours, read-out: HepG2 ED50. How it is done:
(§1) Two thousand cells of human hepatoma HepG2 were inoculated into each well of a 96-well microplate (manufactured by Corning Corp.) using DMEM medium (culture medium) containing 10% fetal calf serum (FCS). Next day, a dimethyl sulfoxide (DMSO) solution of each test compound prepared in a concentration of 10 mmol/L was further diluted with culture medium to the desired concentrations (0.1, 0.5, 1, 2.5, 5 and 10 micromol/L), and the diluted solution was added to each well. The individual wells were further cultured in 5% carbon dioxide at 37° C. for 72 hours. After completion of the culture, 10 μl MTS (3-(4,5-Dimethyl-2-thiazolyl)-5-(carboxymethoxyphenyl)-2-(4-sulfophenyl)-2H-tetrazolium, inner salt assay (CellTiter96® AQueous One Solution Cell Proliferation Assay, Promega) was added to each well, and culturing was performed in 5% carbon dioxide at 37° C. for 2 hours. Using a microplate spectrophotometer (Synergy 2 multi-mode microplate reader (BioTek)), the absorbance of each well was measured at 490 nm. The value for cells not incorporated with a test compound was designated as 100%. By comparing these values with the absorbance difference obtained at the well in which each test compound was added, the cell viability (% viability) after treatment with the test compound was calculated.

The subject of assay [2] is human colorectal adenocarcinoma SW480 cells. The assay is described as follows: Growth inhibition test (MTS) on SW480 cells. The assay is classed as cell-based. Conditions: read-out: SW480 ED50. How it is done:
as §1, with “colorectal adenocarcinoma SW480” for “hepatoma HepG2”, “Corp.), and” for “Corp.)”, “DMEM/Ham's F121:1” for “DMEM”, “5%” for “10%”

Assay [3] concerns human acute lymphocytic leukemia E6.1 Jurkat cells. The assay is described as follows: Growth inhibition test (MTS) on E6.1 Jurkat cells. Format: cell-based. Conditions: 72 hours, read-out: Jurkat ED50. The procedure: as §1, with “Twenty” for “Two”, “acute lumphocytic leukemia E6.1 Jurkat” for “hepatoma HepG2”, “[…]” for “DMEM”
Assay [4] relates to human myelomonocytic, biphenotypic leukemia MV4-11 cells. The assay is described as follows: Growth inhibition test (MTS) on MV4-11 cells. As to conditions: read-out: MV-4-11 ED50. Format: cell-based. The procedure:
as §1, with “Ten” for “Two”, “myelomonocytic, biphenotypic leukemia MV4-11” for “hepatoma HepG2”, “Iscove's MDM” for “DMEM”

Assay [5] has as its system human prostate adenocarcinoma PC3 cells. The assay is described as follows: Growth inhibition test (MTS) on PC3 cells. As to conditions: for IC50: Homo sapiens, PC-3, 72 hours, read-out: PC-3 ED50. The assay is classed as cell-based.
Source text: as §1, with “prostate adenocarcinoma PC3” for “hepatoma HepG2”, “Corp.), and” for “Corp.)”, “F12K (Ham's F12:[…] 1:1)” for “DMEM”

Assay [6] relates to human breast adenocarcinoma MCF7 cells. Put plainly: Growth inhibition test (MTS) on MCF7 cells. Format: cell-based. Conditions: read-out: MCF-7 ED50. The procedure:
as §1, with “breast adenocarcinoma MCF7” for “hepatoma HepG2”, “Corp.), and” for “Corp.)”

Like-named read-outs stand apart in the source and are kept apart here.

For `Brc1c(Br)c(Br)c2[nH]c(NCCN3CCOCC3)nc2c1Br` [Compound 16, 4,5,6,7-tetrabromo-N-(2-morpholinoethyl)-1H-benzo[d]imidazol-2-amine], the figures for the IC50 (at PIM-1; in assay [1]; in assay [2] (72 hours)) were 0.107 µM, 8.78 µM and 9.68 µM, respectively.

`Brc1c(Br)c(Br)c2[nH]c(N3CCOCC3)nc2c1Br` [Compound 19, 4,5,6,7-tetrabromo-2-morpholino-1H-benzo[d]imidazole]: the IC50 stood at 4.63 µM in assay [3]; 0.0294 µM on PIM-1; 6.83 µM in assay [4] (Homo sapiens, MV4-11, 72 hours).

On to `Brc1c(Br)c(Br)c2[nH]c(NCCCN3CCCC3)nc2c1Br` [Compound 58], for which the IC50 in assay [3] is 3.37 µM; at PIM-1, 0.0257 µM; in assay [1], 2.93 µM; in assay [4] (Homo sapiens, MV4-11, 72 hours) it was 1.54 µM.

For `CN(C)CCCN1CCN(c2nc3c(Br)c(Br)c(Br)c(Br)c3[nH]2)CC1` [Compound 75, 3-(4-(4,5,6,7-tetrabromo-1H-benzo[d]imidazol-2-yl)piperazin-1-yl)-N,N-dimethylpropan-1-amine], the IC50 in assay [3] came to 7.79 µM; on PIM-1 it was 0.279 µM; in assay [1] it was 5.85 µM; in assay [4] (Homo sapiens, MV4-11, 72 hours), 3.33 µM.

`CN(C)CCCN(Cc1ccccc1)c1nc2c(Br)c(Br)c(Br)c(Br)c2[nH]1` [Compound 85, N-benzyl-4,5,6,7-tetrabromo-N-(3-(dimethylamino)propyl)-1H-benzo[d]imidazol-2-amine]: the IC50 in assay [5] is 5.84 µM; on PIM-1, 0.0653 µM; in assay [1], 2.84 µM; in assay [6] (Homo sapiens, MCF7, 72 hours), 4.12 µM; in assay [4] (Homo sapiens, MV4-11, 72 hours), 2.66 µM.

As to `Oc1ccc(CCNc2nc3c(Br)c(Br)c(Br)c(Br)c3[nH]2)cc1` [Compound 243, 4-(2-(4,5,6,7-tetrabromo-1H-benzo[d]imidazol-2-ylamino)ethyl)phenol], the IC50 came to 6.12 µM in assay [3]; 9 µM in assay [1]; 6.84 µM in assay [4] (Homo sapiens, MV4-11, 72 hours).

As to `Brc1c(Br)c(Br)c2[nH]c(N3CCN4CCC3CC4)nc2c1Br` [Compound 350, 2-(4,5,6,7-tetrabromo-1H-benzo[d]imidazol-2-yl)-2,5-diaza-bicyclo[3.2.2]nonane], the IC50 in assay [5] is 8.48 µM; at PIM-1, 0.0327 µM; in assay [1], 5.55 µM; in assay [6] (Homo sapiens, MCF7, 72 hours) it was 6.55 µM; in assay [4] (Homo sapiens, MV4-11, 72 hours), 5.52 µM.

As to `OCCCN1CCN(c2nc3c(Br)c(Br)c(Br)c(Br)c3[nH]2)CC1` [Compound 383, 3-(4-(4,5,6,7-tetrabromo-1H-benzo[d]imidazol-2-yl)piperazin-1-yl)propan-1-ol], the IC50 worked out at 8.3 µM in assay [5]; 0.0944 µM on PIM-1; 7.12 µM in assay [1]; 3.72 µM in assay [2] (Homo sapiens, SW480, 72 hours); 8.32 µM in assay [6] (Homo sapiens, MCF7, 72 hours); 3.43 µM in assay [4] (Homo sapiens, MV4-11, 72 hours).

Turning to `Brc1c(Br)c(Br)c2[nH]c(N3CCN(Cc4cn5ccccc5n4)CC3)nc2c1Br` [Compound 387, 2-(4-((H-imidazo[1,2-a]pyridin-2-yl)methyl)piperazin-1-yl)-4,5,6,7-tetrabromo-1H-benzo[d]imidazole], the “PC-3 ED50” value in assay [5] (72 hours) amounted to 5.49 µM. The figures for the IC50 in assay [2] (72 hours), in assay [6] (72 hours) and in assay [4] (72 hours) were 3.27 µM, 9.25 µM and 2.13 µM, respectively.

Consider `N=C(N)N1CCN(c2nc3c(Br)c(Br)c(Br)c(Br)c3[nH]2)CC1` [Compound 392, 4-(4,5,6,7-tetrabromo-1H-benzo[d]imidazol-2-yl)piperazine-1-carboxamidine], for which the IC50 in assay [5] was 4.48 µM; at PIM-1, 0.00672 µM; in assay [2] (Homo sapiens, SW480, 72 hours), 1.85 µM; in assay [4] (Homo sapiens, MV4-11, 72 hours) it was 7.55 µM.
